Assay results as given in article PMC6934184, “Selective DNA-PKcs inhibition extends the therapeutic index of localized radiotherapy and chemotherapy” (The Journal of Clinical Investigation, 2019).

Molecular target: T1, PDGFRA (PDGFR alpha) (Homo sapiens, UniProt P16234)
T1 construct: purchased Thermo Fisher Scientific (Life Technologies) SelectScreen
Test: SelectScreen Z'LYTE
Type: biochemical
How it was run: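 NU5455 was profiled across the SelectScreen Broad panel of kinase activity and binding assays. Z'LYTE reactions such as CSF1R ran at apparent Km ATP, while the Adapta CAMK1 assay used ATP listed as 10. Values are given as percent.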

T1 sequence (P16234 24-1089): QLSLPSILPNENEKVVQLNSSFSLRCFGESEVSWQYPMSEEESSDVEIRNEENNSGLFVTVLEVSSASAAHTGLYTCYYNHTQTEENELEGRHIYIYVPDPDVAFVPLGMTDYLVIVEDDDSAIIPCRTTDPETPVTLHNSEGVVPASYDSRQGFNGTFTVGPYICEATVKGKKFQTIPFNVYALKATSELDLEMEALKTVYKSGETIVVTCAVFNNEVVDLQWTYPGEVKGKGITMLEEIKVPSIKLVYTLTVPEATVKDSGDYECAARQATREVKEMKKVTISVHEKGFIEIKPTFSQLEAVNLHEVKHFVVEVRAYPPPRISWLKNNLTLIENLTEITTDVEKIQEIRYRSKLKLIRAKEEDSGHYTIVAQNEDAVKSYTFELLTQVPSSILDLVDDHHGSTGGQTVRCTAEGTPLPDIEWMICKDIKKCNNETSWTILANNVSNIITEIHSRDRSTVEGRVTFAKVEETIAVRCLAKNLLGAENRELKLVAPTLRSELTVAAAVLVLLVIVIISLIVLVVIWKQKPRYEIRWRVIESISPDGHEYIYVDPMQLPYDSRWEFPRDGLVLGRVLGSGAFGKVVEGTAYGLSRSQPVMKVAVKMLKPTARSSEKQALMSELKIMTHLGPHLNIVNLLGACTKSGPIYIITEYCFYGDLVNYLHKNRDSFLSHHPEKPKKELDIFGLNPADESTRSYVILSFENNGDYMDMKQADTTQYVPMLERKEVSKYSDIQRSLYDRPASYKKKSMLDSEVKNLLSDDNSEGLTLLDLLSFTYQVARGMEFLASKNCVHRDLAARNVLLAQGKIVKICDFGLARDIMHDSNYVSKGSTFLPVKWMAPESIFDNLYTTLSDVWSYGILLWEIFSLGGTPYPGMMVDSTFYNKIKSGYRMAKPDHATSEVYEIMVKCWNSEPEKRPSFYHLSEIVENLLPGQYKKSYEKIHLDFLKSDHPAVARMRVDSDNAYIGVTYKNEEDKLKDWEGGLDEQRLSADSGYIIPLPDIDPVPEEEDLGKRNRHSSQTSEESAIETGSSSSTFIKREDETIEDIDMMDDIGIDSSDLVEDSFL

## CN(C(=O)CN1CCOCC1)c1ccc2sc3c(-c4cccc5c(=O)cc(N6CC7CCC(C6)O7)oc45)cccc3c2c1 [NU5455]
  inhibition at 1 µM: -6.8%
